Assay results from PubChem BioAssay AID743432 (The Scripps Research Institute Molecular Screening Center, 2014).
pIC50: −log10 of the molar value. Calls of active or inactive are those of the source. How the calls were made is not given here.

Target: Sphingosine 1-phosphate receptor 4 (Homo sapiens) (UniProt O95977)
Test: S1P4 receptor antagonists, late-stage follow-up, selectivity assay for S1PR3 antagonist project, cell-based, FRET, dose response (AID 743432)
Details: S1P4 cell line

Chain of Sphingosine 1-phosphate receptor 4 (Homo sapiens) (O95977 whole entry, looked up): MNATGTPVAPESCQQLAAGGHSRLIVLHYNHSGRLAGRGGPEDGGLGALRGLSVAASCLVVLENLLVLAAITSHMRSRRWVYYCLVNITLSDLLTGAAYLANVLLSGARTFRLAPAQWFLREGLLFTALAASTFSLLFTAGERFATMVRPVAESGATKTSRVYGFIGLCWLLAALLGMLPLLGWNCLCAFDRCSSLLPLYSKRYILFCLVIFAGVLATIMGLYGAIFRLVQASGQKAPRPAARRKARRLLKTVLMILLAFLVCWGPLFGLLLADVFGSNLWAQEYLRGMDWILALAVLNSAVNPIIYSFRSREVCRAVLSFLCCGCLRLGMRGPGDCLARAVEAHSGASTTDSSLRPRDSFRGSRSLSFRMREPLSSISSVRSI

SMILES	IC50	pIC50
CCc1ccc(C(NC(=O)c2cccc(Cl)c2)c2nc(-c3ccccc3)no2)cc1 (stereo not given)	> 50 µM (inactive)	
O=C(NC(c1ccc(Cl)c(Cl)c1)c1nc(-c2ccccc2)no1)c1ccccc1 (stereo not given)	> 50 µM (inactive)	
COc1ccc(C(=O)NC(c2ccccc2)c2nc(-c3ccccc3)no2)cc1 (stereo not given)	> 50 µM (inactive)	
O=C(NC(c1ccc(Cl)cc1)c1nc(-c2cccc(Cl)c2)no1)c1cccc(Cl)c1 (stereo not given)	> 50 µM (inactive)	
O=C(NC(c1ccccc1)c1nc(-c2ccccc2)no1)c1cccc(Cl)n1 (stereo not given)	> 50 µM (inactive)	
Cc1ccc(C(NC(=O)c2cccc(Cl)c2)c2nc(-c3ccccc3)no2)cc1 (stereo not given)	> 50 µM (inactive)	
O=C(NC(c1ccc(Cl)cc1)c1nc(-c2ccccc2)no1)c1ccc(Cl)c(Br)c1 (stereo not given)	> 50 µM (inactive)	
O=C(NC(c1ccccc1)c1nc(-c2ccccc2)no1)c1cccc(Cl)c1 (stereo not given)	> 50 µM (inactive)	
O=C(NC(c1ccc(Cl)cc1)c1nc(-c2ccccn2)no1)c1cccc(Cl)c1 (stereo not given)	> 50 µM (inactive)	
O=C(NC(c1cccc(Cl)c1)c1nc(-c2ccccc2)no1)c1ccc(Cl)c(Cl)c1 (stereo not given)	> 50 µM (inactive)	
O=C(NC(c1ccc(Br)cc1)c1nc(-c2ccccc2)no1)c1ccc(Cl)c(Cl)c1 (stereo not given)	> 50 µM (inactive)	
O=C(NC(c1ccccc1)c1nc(-c2ccccc2)no1)c1cccc(Br)c1 (stereo not given)	> 50 µM (inactive)	
O=C(NC(c1cccc(Cl)c1)c1nc(-c2ccccc2)no1)c1cc(Cl)cc(Cl)c1 (stereo not given)	> 50 µM (inactive)	
O=C(NC(c1ccc(Cl)cc1)c1nc(-c2ccccc2)no1)c1ccc(Cl)c(Cl)c1 (stereo not given)	> 50 µM (inactive)	
O=C(NC(c1cccc(Cl)c1)c1nc(-c2ccccc2)no1)c1cccc(Cl)c1 (stereo not given)		5.28
N#Cc1ccc(C(=O)NC(c2ccc(Cl)c(Cl)c2)c2nc(-c3ccccc3)no2)cc1 (stereo not given)		5.51
O=C(c1cccc(Cl)c1)N(CCO)C(c1ccc(Cl)c(Cl)c1)c1nc(-c2ccccc2)no1 (stereo not given)	inactive	
O=C(NC(c1ccc(Cl)c(Cl)c1)c1nc(-c2ccccc2)no1)c1ccc(Cl)c(Cl)c1 (stereo not given)	> 50 µM (inactive)	
Cc1ccc(C(=O)NC(c2ccccc2)c2nc(-c3ccccc3)no2)cc1 (stereo not given)	> 50 µM (inactive)	
O=C(NC(c1nc(-c2ccccc2)no1)C1CCCCC1)c1ccc(Cl)c(Cl)c1 (stereo not given)	> 50 µM (inactive)	
